Data taken from patent US20110081428A1, “Use of thioflavin-like compounds to increase life span and/or health span” (priority 2009, published 2011).

Key:
Type in all cases: in vivo, Caenorhabditis elegans
[1] = tested on: HE250 [unc-52(e669su250)II]; experiment: Worm paralysis assay, unc-52 ts mutant; conditions: HE250, 25° C., 36 h; 50 μM ThT, 100 μM curcumin, 100 μM rifampicin
Experimental: (§1) Scoring for paralysis was initiated 2 and 8 days after temperature upshift for CL4176 and AM140, respectively. […] For sensitivity to EtOH or levamisole resistance, CW152 gas-1 (fc21) X and ZZ26 unc-63(x26)I worms were picked into 0.4 M EtOH or 50 μM levamisole, respectively, equilibrated for 5 min, and scored for paralysis as described above. Treated and untreated worms were compared with an unpaired t-test (implemented in Prism 4, Graphpad™ Software, Inc., San Diego, Calif., USA).

[2] = tested on: CL4176 (Aβ3-42 expressed in muscle); experiment: Worm paralysis assay, Aβ model; conditions: CL4176, 25° C.; 50 μM ThT, 100 μM curcumin
Experimental: as §1

[3] = tested on: AM140 (rmIs132[P(unc-54) Q35::YFP]); experiment: Worm paralysis assay, polyQ model; conditions: AM140, 25° C., 8 days; 50 μM ThT, 100 μM curcumin
Experimental: as §1

[4] = tested on: HSP-16.2; experiment: Western blot HSP-16.2; conditions: 50 μM ThT, 100 μM curcumin, 4 and 7 days of treatment
Experimental: Peptide corresponding to amino acids 110-145 ([…]; SEQ ID NO:1) of HSP-16.2 was used to commercially synthesize antiserum (Invitrogen). Briefly, KLH-peptide was emulsified by mixing with an equal volume of Freund's adjuvant and injected into three subcutaneous dorsal sites for a total of 0.1 mg of peptide for immunization. The animals (rabbits) were bled, the blood allowed to clot and the serum collected by centrifugation. Monoclonal HSP-70 and Polyclonal HSF-1 primary antibodies were from stressgen (N27F3-4 and SPA-901, respectively).
Worms were transferred to siliconized eppendorf tubes, washed once in S-basal and frozen in liquid N2. Standard SDS-PAGE was performed using (4-12%) NOVEX gels and IVIES running buffer. Following transfer PVDF (BioRad) membranes were incubated with antisera (1:10000) or primary antibodies (1:1000) diluted in blocking buffer and then with secondary, goat anti-rabbit IgG antibody/horseradish peroxidase conjugate (Pierce), diluted 1:25000. Detection was undertaken with chemiluminescent reagents (SuperSignal, Pierce) and standard autoradiography.

[5] = tested on: DAF-16 fusion protein [TJ356 daf-16::daf-16-gfp]; experiment: DAF-16::GFP localization; conditions: ThT or curcumin treatment, no heat shock
Experimental: For fluorescent microscopy, TJ356 zIs356 IV [daf-16::daf-16-gfp+rol-6] or CF2189 Is001(skn-1::gfp+rol-6) were paralyzed with 1 mM levamisole mounted on 1% agarose pads and imaged using Olympus BX51 (60× objective) and HCImage software (Hamamatsu). For immunofluorescence, N2, […], CB1157 unc-54(e1157) or CL4176 dvIs27 [myo-3::Aβ(3 to 42)-let 3′UTR(pAF29); pRF4 (rol-6(su1006))] worms were treated for 24-36 h with or without 50 μM ThT at 25° C. After this period the worms were collected, rinsed, and fixed in 4% paraformaldehyde overnight. […] Paramyosin and perlecans were detected with primary monoclonal antibodies 5-23 and MH3 (developed by Henry Epstein and Robert H. Waterston and obtained from the Developmental Studies Hybridoma Bank developed under the auspices of the NICHD and maintained by The University of Iowa, Department of Biology, Iowa City, Iowa 52242) and AlexaFluor 633 goat anti-mouse (Molecular Probes) as secondary antibody. Soluble oligomers and Aβ peptide were detected with anti polyclonal All (Invitrogen) and 6E10 monoclonal (Covance) primary antibodies, respectively, with AlexaFluor 568 goat anti-rabbit and AlexaFluor 488 goat anti-mouse (Molecular Probes) as secondary antibodies. Images were processed and quantified by using Image Analyst MK II (Novato, Calif.).

COc1cc(/C=C/C(=O)CC(=O)/C=C/c2ccc(O)c(OC)c2)ccc1O [curcumin, reference compound]
paralysis phenotype of unc-52 mutant [1]: Protection | proportion of paralyzed worms [2]: significantly decrease the proportion of paralyzed worms | proportion of paralyzed worms [3]: significantly decrease the proportion of paralyzed worms | HSP-16.2 protein levels [4]: increase the HSP-16.2 levels | DAF-16::GFP localization [5]: does not produce DAF-16::GFP relocalization
